This data set has as its system CCRIS mutagenicity, Ames/micronucleus/aberration tests. Briefly: CCRIS mutagenicity studies.
Setting [1] is: Test System: AMES SALMONELLA TYPHIMURIUM, Strain/Indicator: TA97, Metabolic Activation: HAMSTER, LIVER, S-9, AROCLOR 1254 (10 OR 30%), Method: PREINCUBATION
Where [2] appears, read: Test System: AMES SALMONELLA TYPHIMURIUM, Strain/Indicator: TA97, Metabolic Activation: NONE, Method: PREINCUBATION
[3] abbreviates: Test System: AMES SALMONELLA TYPHIMURIUM, Strain/Indicator: TA97, Metabolic Activation: RAT, LIVER, S-9, AROCLOR 1254 (10 OR 30%), Method: PREINCUBATION
Setting [4] is: Test System: AMES SALMONELLA TYPHIMURIUM, Strain/Indicator: TA98, Metabolic Activation: HAMSTER, LIVER, S-9, AROCLOR 1254 (10 OR 30%), Method: PREINCUBATION
The mark [5] stands for this setting: Test System: AMES SALMONELLA TYPHIMURIUM, Strain/Indicator: TA98, Metabolic Activation: NONE, Method: PREINCUBATION
The mark [6] stands for this setting: Test System: AMES SALMONELLA TYPHIMURIUM, Strain/Indicator: TA98, Metabolic Activation: RAT, LIVER, S-9, AROCLOR 1254 (10 OR 30%), Method: PREINCUBATION
Where [7] appears, read: Test System: AMES SALMONELLA TYPHIMURIUM, Strain/Indicator: TA100, Metabolic Activation: HAMSTER, LIVER, S-9, AROCLOR 1254 (10 OR 30%), Method: PREINCUBATION
Setting [8] is: Test System: AMES SALMONELLA TYPHIMURIUM, Strain/Indicator: TA100, Metabolic Activation: NONE, Method: PREINCUBATION
Where [9] appears, read: Test System: AMES SALMONELLA TYPHIMURIUM, Strain/Indicator: TA100, Metabolic Activation: RAT, LIVER, S-9, AROCLOR 1254 (10 OR 30%), Method: PREINCUBATION
Where [10] appears, read: Test System: AMES SALMONELLA TYPHIMURIUM, Strain/Indicator: TA1535, Metabolic Activation: HAMSTER, LIVER, S-9, AROCLOR 1254 (10 OR 30%), Method: PREINCUBATION
Where [11] appears, read: Test System: AMES SALMONELLA TYPHIMURIUM, Strain/Indicator: TA1535, Metabolic Activation: NONE, Method: PREINCUBATION
Where [12] appears, read: Test System: AMES SALMONELLA TYPHIMURIUM, Strain/Indicator: TA1535, Metabolic Activation: RAT, LIVER, S-9, AROCLOR 1254 (10 OR 30%), Method: PREINCUBATION
[13] abbreviates: Test System: AMES SALMONELLA TYPHIMURIUM, Strain/Indicator: TA98, Metabolic Activation: NONE, Method: STANDARD PLATE.
Where [14] appears, read: Test System: AMES SALMONELLA TYPHIMURIUM, Strain/Indicator: TA98, Metabolic Activation: RAT, LIVER, S-9, AROCLOR 1254, Method: STANDARD PLATE.
Setting [15] is: Test System: AMES SALMONELLA TYPHIMURIUM, Strain/Indicator: TA100, Metabolic Activation: NONE, Method: STANDARD PLATE.
Where [16] appears, read: Test System: AMES SALMONELLA TYPHIMURIUM, Strain/Indicator: TA100, Metabolic Activation: RAT, LIVER, S-9, AROCLOR 1254, Method: STANDARD PLATE.
Where [17] appears, read: Test System: AMES SALMONELLA TYPHIMURIUM, Strain/Indicator: TA1538, Metabolic Activation: NONE, Method: STANDARD PLATE.
Where [18] appears, read: Test System: AMES SALMONELLA TYPHIMURIUM, Strain/Indicator: TA1538, Metabolic Activation: RAT, LIVER, S-9, AROCLOR 1254, Method: STANDARD PLATE.

Activity calls are given as the source filed them. The rule behind the calls is not given here.

As to `CCCCN(CC)CC`, the mutagenic call by setting is: under setting [1], “inactive; negative”; under setting [2], “inactive; negative”; under setting [3], “inactive; negative”; under setting [4], “inactive; negative”; under setting [5], “inactive; negative”; under setting [6], “inactive; negative”. For the same molecule, the mutagenic call under setting [7] is “inactive; negative”; the mutagenic call under setting [8] is “inactive; negative”; the mutagenic call under setting [9] is “inactive; negative”; the mutagenic call under setting [10] was “inactive; negative”; the mutagenic call under setting [11] is “inactive; negative”; the mutagenic call under setting [12] was “inactive; negative”.
`Nc1ccc2ccccc2c1N=Nc1ccccc1`: the mutagenic call (Test System: AMES SALMONELLA TYPHIMURIUM, Strain/Indicator: TA98, Metabolic Activation: HAMSTER, LIVER, S-9, AROCLOR 1254 (2.5-20%), Method: PREINCUBATION) was “inactive; negative”; the mutagenic call (Test System: AMES SALMONELLA TYPHIMURIUM, Strain/Indicator: TA98, Metabolic Activation: HAMSTER, LIVER, S-9, AROCLOR 1254, Method: STANDARD PLATE) was “inactive; negative”; the mutagenic call under setting [13] is “inactive; negative”; the mutagenic call under setting [14] is “inactive; negative”; the mutagenic call (Test System: AMES SALMONELLA TYPHIMURIUM, Strain/Indicator: TA100, Metabolic Activation: HAMSTER, LIVER, S-9, AROCLOR 1254 (2.5-20%), Method: PREINCUBATION) is “inactive; negative”; the mutagenic call (Test System: AMES SALMONELLA TYPHIMURIUM, Strain/Indicator: TA100, Metabolic Activation: HAMSTER, LIVER, S-9, AROCLOR 1254, Method: STANDARD PLATE) is “inactive; negative”. Moreover, the mutagenic call runs as follows: under setting [15], “inactive; negative”; under setting [16], “inactive; negative”; (Test System: AMES SALMONELLA TYPHIMURIUM, Strain/Indicator: TA102, Metabolic Activation: HAMSTER, LIVER, S-9, AROCLOR 1254 (10%), Method: PREINCUBATION) “inactive; negative”; (Test System: AMES SALMONELLA TYPHIMURIUM, Strain/Indicator: TA102, Metabolic Activation: NONE, Method: PREINCUBATION) “inactive; negative”; (Test System: AMES SALMONELLA TYPHIMURIUM, Strain/Indicator: TA102, Metabolic Activation: RAT, LIVER, S-9, AROCLOR 1254 (10%), Method: PREINCUBATION) “inactive; negative”; (Test System: AMES SALMONELLA TYPHIMURIUM, Strain/Indicator: TA1535, Metabolic Activation: HAMSTER, LIVER, S-9, AROCLOR 1254, Method: STANDARD PLATE) “inactive; negative”. For the same molecule, the mutagenic call is, setting by setting: (Test System: AMES SALMONELLA TYPHIMURIUM, Strain/Indicator: TA1535, Metabolic Activation: NONE, Method: STANDARD PLATE) “inactive; negative”; (Test System: AMES SALMONELLA TYPHIMURIUM, Strain/Indicator: TA1535, Metabolic Activation: RAT, LIVER, S-9, AROCLOR 1254, Method: STANDARD PLATE) “inactive; negative”; (Test System: AMES SALMONELLA TYPHIMURIUM, Strain/Indicator: TA1537, Metabolic Activation: HAMSTER, LIVER, S-9, AROCLOR 1254, Method: STANDARD PLATE) “inactive; negative”; (Test System: AMES SALMONELLA TYPHIMURIUM, Strain/Indicator: TA1537, Metabolic Activation: NONE, Method: STANDARD PLATE) “inactive; negative”; (Test System: AMES SALMONELLA TYPHIMURIUM, Strain/Indicator: TA1537, Metabolic Activation: RAT, LIVER, S-9, AROCLOR 1254, Method: STANDARD PLATE) “inactive; negative”; (Test System: AMES SALMONELLA TYPHIMURIUM, Strain/Indicator: TA1538, Metabolic Activation: HAMSTER, LIVER, S-9, AROCLOR 1254, Method: STANDARD PLATE) “inactive; negative”. Moreover, the mutagenic call reads like this: under setting [17], “inactive; negative”; under setting [18], “inactive; negative”; (Test System: MOUSE LYMPHOMA, Strain/Indicator: L5178Y (TK+/TK-), Metabolic Activation: NONE, Method: SUSPENSION/PLATE) “active; positive. reevaluation of results: equivocal”.
Regarding `c1ccc(Cn2ccnc2)cc1`, the mutagenic call was “inactive; negative” under setting [5]; “inactive; negative” (Test System: AMES SALMONELLA TYPHIMURIUM, Strain/Indicator: TA98, Metabolic Activation: RAT, LIVER, S-9, N-BENZYLIMIDAZOLE, Method: PREINCUBATION); “inactive; negative” (Test System: AMES SALMONELLA TYPHIMURIUM, Strain/Indicator: TA98, Metabolic Activation: RAT, LIVER, S-9, Method: PREINCUBATION); “inactive; negative” under setting [8]; “active; positive” (Test System: AMES SALMONELLA TYPHIMURIUM, Strain/Indicator: TA100, Metabolic Activation: RAT, LIVER, S-9, N-BENZYLIMIDAZOLE, Method: PREINCUBATION); “active; positive” (Test System: AMES SALMONELLA TYPHIMURIUM, Strain/Indicator: TA100, Metabolic Activation: RAT, LIVER, S-9, Method: PREINCUBATION).
On to `NC(=O)c1ccccc1`, for which the mutagenic call by setting is: under setting [1], “inactive; negative”; under setting [2], “inactive; negative”; under setting [3], “inactive; negative”; under setting [4], “inactive; negative”; under setting [5], “inactive; negative”; under setting [6], “inactive; negative”. The mutagenic call under setting [7] was “inactive; negative”; the mutagenic call under setting [8] was “inactive; negative”; the mutagenic call under setting [9] was “inactive; negative”; the mutagenic call under setting [10] was “inactive; negative”; the mutagenic call under setting [11] was “inactive; negative”; the mutagenic call under setting [12] was “inactive; negative”.
Turning to `CCOc1cc(N=Nc2ccccc2)ccc1N=Nc1c(S(=O)(=O)O)cc2ccc(N)cc2c1O`, the mutagenic call under setting [13] is “inactive; negative”; the mutagenic call under setting [14] is “active; positive”; the mutagenic call under setting [15] is “inactive; negative”; the mutagenic call under setting [16] was “active; positive”; the mutagenic call under setting [17] was “inactive; negative”; the mutagenic call under setting [18] was “active; positive”.
Take `Cc1ccc2c3c(cc4ccccc42)-c2ccccc2-c13`: the mutagenic call (Test System: AMES SALMONELLA TYPHIMURIUM, Strain/Indicator: TA100, Metabolic Activation: RAT, LIVER, S-9, AROCLOR 1254) is “active; positive”.

For the origin of these results see PubChem BioAssay AID1259407 (Chemical Carcinogenesis Research Information System (CCRIS), 2018).
